≈ marks a conversion by molar mass, not a printed value.
Key:
[1] = system: Escherichia coli ATCC 8099; test: Antibacterial activity, broth microdilution MIC; format: cell-based; details: for MIC: Escherichia coli, ATCC8099, broth microdilution, 37° C., 24 hours, working range 0.25-128 μg/mL (Gram-negative); for antibacterial effect compared with tylosin against Escherichia coli 8099: in vitro, comparison in words with positive control tylosin
Procedure: (§1) Test Example 1 Determination of the antibacterial activity of the compounds of the present invention The antibacterial activity of the compounds obtained in Examples 1-4 of the present invention were determined by using the broth microdilution method with tylosin as a positive control. A broth culture medium was added into a 96-well plate, a prepared compound solution was diluted two-fold serial dilution, and then inoculated with an appropriate amount of bacterial solution. After incubation for 24 hours, the minimum inhibitory concentration of the compound was observed. The culture medium used in the experiment was CAMHB broth, CAMHB+5% defibrillated sheep blood broth. The preserved bacteria strain was inoculated into a serum-supplemented medium and cultured at 37° C. for 16-18 hours. An appropriate amount of bacteria after the completion of subculture and saline were placed into a turbidimetric tube and calibrated to the McFarland standard with a McFarland turbidimeter. The bacterial suspension was diluted 10 times with saline to prepare test bacterial solutions of certain concentrations (5×10^5 to 5×10^6 cfu/mL) for later use. Tylosin and the compounds obtained in the examples were dissolved in methanol to the desired concentration of each compound (1.0 mg/mL), stored in sterilized brown vials, stoppered, and sealed for later use. The working concentration range against Gram-negative bacteria was 0.25 μg/mL to 128 μg/mL; and the working concentration range against Gram-positive bacteria was 0.098 μg/mL to 50 μg/mL. The 96-well plate micro double dilution method was used. […] Finally, the prepared bacterial solution (of a concentration of 5×10^5 to 5×10^6 cfu/mL) was added into the first well to the eleventh well, and the twelfth well was not added with the bacterial solution to serve as a blank control. The 96-well plate was placed in a 37° C. incubator, cultured in a static state for 24 hours to observe the bacterial growth in each well. The solution in the well that inhibited bacterial growth was transparent, and the solution in the well that could not inhibit bacterial growth was turbid. The concentration in the well with a transparent solution was selected to be the minimum inhibitory concentration (MIC) of the sample.

[2] = system: Streptococcus pneumoniae ATCC 49169; test: Antibacterial activity, broth microdilution MIC; format: cell-based; details: for MIC: Streptococcus pneumoniae, ATCC49169, broth microdilution, 37° C., 24 hours, working range 0.098-50 μg/mL (Gram-positive); for antibacterial effect compared with tylosin against Streptococcus pneumoniae ATCC 49169: in vitro, comparison in words with positive control tylosin
Procedure: as §1

| MIC [1] [µg/mL] | MIC [2] [µg/mL] | Structure (SMILES) | antibacterial effect compared with tylosin against Escherichia coli 8099 [1] | antibacterial effect compared with tylosin against Streptococcus pneumoniae ATCC 49169 [2] |
| --- | --- | --- | --- | --- |
| 128 (≈ 128 µM) | 0.781 (≈ 0.78 µM) | CC[C@H]1OC(=O)C[C@@H](O)[C@H](C)[C@@H](O[C@@H]2O[C@H](C)[C@@H](O[C@H]3C[C@@](C)(O)[C@@H](O)[C@H](C)O3)[C@H](N(C)C)[C@H]2O)[C@@H](CCN2CCC[C@H]2CO)C[C@@H](C)C(=O)/C=C/C(C)=C/[C@@H]1CO[C@@H]1O[C@H](C)[C@@H](O)[C@@H](OC)[C@H]1OC [Id, 20-((S)-2-hydroxymethyltetrahydropyrrolyl) tylosin] | – | – |
| 128 (≈ 131 µM) | 0.391 (≈ 0.401 µM) | CC[C@H]1OC(=O)C[C@@H](O)[C@H](C)[C@@H](O[C@@H]2O[C@H](C)[C@@H](O[C@H]3C[C@@](C)(O)[C@@H](O)[C@H](C)O3)[C@H](N(C)C)[C@H]2O)[C@@H](CCNCCCO)C[C@@H](C)C(=O)/C=C/C(C)=C/[C@@H]1CO[C@@H]1O[C@H](C)[C@@H](O)[C@@H](OC)[C@H]1OC [Ia, 20-(3-hydroxypropylamino) tylosin] | comparable antibacterial effect to tylosin | slightly better antibacterial effect than tylosin |
| 64 (≈ 63.9 µM) | 0.195 (≈ 0.195 µM) | CC[C@H]1OC(=O)C[C@@H](O)[C@H](C)[C@@H](O[C@@H]2O[C@H](C)[C@@H](O[C@H]3C[C@@](C)(O)[C@@H](O)[C@H](C)O3)[C@H](N(C)C)[C@H]2O)[C@@H](CCN2CCC[C@@H]2CO)C[C@@H](C)C(=O)/C=C/C(C)=C/[C@@H]1CO[C@@H]1O[C@H](C)[C@@H](O)[C@@H](OC)[C@H]1OC [Ic, 20-((R)-2-hydroxymethyltetrahydropyrrolyl) tylosin] | superior antibacterial effect to tylosin | superior antibacterial effect to tylosin |
| 128 (≈ 140 µM) | 0.781 (≈ 0.853 µM) | CC[C@H]1OC(=O)C[C@@H](O)[C@H](C)[C@@H](O[C@@H]2O[C@H](C)[C@@H](O[C@H]3C[C@@](C)(O)[C@@H](O)[C@H](C)O3)[C@H](N(C)C)[C@H]2O)[C@@H](CC=O)C[C@@H](C)C(=O)/C=C/C(C)=C/[C@@H]1CO[C@@H]1O[C@H](C)[C@@H](O)[C@@H](OC)[C@H]1OC [Tylosin, reference compound] | – | – |
| 128 (≈ 127 µM) | 0.781 (≈ 0.777 µM) | CC[C@H]1OC(=O)C[C@@H](O)[C@H](C)[C@@H](O[C@@H]2O[C@H](C)[C@@H](O[C@H]3C[C@@](C)(O)[C@@H](O)[C@H](C)O3)[C@H](N(C)C)[C@H]2O)[C@@H](CCN(CCO)CCO)C[C@@H](C)C(=O)/C=C/C(C)=C/[C@@H]1CO[C@@H]1O[C@H](C)[C@@H](O)[C@@H](OC)[C@H]1OC [Ib, 20-(bis(2-hydroxyethylamino)) tylosin] | – | – |

— patent US20260108549A1, “MACROLIDE COMPOUND AND PREPARATION METHOD AND APPLICATION THEREOF” (INSTITUTE OF FEED RESEARCH, CHINESE ACADEMY OF AGRICULTURAL …, priority 2023, published 2026)
